In patent publication US11345699B2, “Apoptosis signal-regulating kinase 1 inhibitors and methods of use thereof” (Enanta Pharmaceuticals, Inc., priority 2018, dated 2022):

target: ASK1 (Homo sapiens (Human), UniProt Q99683); assay: HTRF KinEASE Assay (TR-FRET), inhibition of ASK1; type: biochemical; conditions: ASK1 kinase, 100 μM ATP, 1 μM STK3 peptide substrate, compound 0 to 10 μM
Procedure: Assay HTRF® KinEASE™ Assay
ASK1 was purchased from Thermofisher (Catalogue #PV4011), ATP was purchased from Sigma (Catalogue #A7699), HTRF® KinEASE™ Assay System was obtained from Cisbio (Bedford, Mass.). ½ Area plate was purchased from Perkin Elmer (Catalogue ##6005560). HTRF® KinEASE™-STK is a generic method for measuring serine/threonine kinase activities using a time-resolved fluorescence resonance energy transfer (TR-FRET) immunoassay. The IC50 value for each compound was determined in the presence of compound (various concentration from 0 to 10 μM) and a fixed amount of ATP and peptide substrates. The test compound, 1 μM STK3 peptide substrate, and […] of ASK1 kinase are incubated with kinase reaction buffer containing 50 mM HEPES Ph 7.5, 0.01% BRIJ-35, 10 mM MgCl2, and 1 mM EGTA for 30 minutes. 100 μM ATP is added to start kinase reaction and incubated for 3 hours. The STK3-antibody labeled with Eu^3+-Cryptate and 125 nM streptavidin-XL665 are mixed in a single addition with stop reagents provided by the Cisbio kit used to stop the kinase reaction. Fluorescence is detected using an Envision Multilabeled 2014 reader from PerkinElmer. The Fluorescence is measured at 615 nm (Cryptate) and 665 nm (XL665) and a ratio of 665 nm/615 nm is calculated for each well. The resulting TR-FRET is proportional to the phosphorylation level. Staurosporine was used as the positive control. IC50 was determined by Xlfit 5.3.
By using above method, the inhibition of ASK1 was evaluated for the compounds of Formula (I). Example numbers correspond to those in Table 5.

Sequence of ASK1 (Q99683 whole entry): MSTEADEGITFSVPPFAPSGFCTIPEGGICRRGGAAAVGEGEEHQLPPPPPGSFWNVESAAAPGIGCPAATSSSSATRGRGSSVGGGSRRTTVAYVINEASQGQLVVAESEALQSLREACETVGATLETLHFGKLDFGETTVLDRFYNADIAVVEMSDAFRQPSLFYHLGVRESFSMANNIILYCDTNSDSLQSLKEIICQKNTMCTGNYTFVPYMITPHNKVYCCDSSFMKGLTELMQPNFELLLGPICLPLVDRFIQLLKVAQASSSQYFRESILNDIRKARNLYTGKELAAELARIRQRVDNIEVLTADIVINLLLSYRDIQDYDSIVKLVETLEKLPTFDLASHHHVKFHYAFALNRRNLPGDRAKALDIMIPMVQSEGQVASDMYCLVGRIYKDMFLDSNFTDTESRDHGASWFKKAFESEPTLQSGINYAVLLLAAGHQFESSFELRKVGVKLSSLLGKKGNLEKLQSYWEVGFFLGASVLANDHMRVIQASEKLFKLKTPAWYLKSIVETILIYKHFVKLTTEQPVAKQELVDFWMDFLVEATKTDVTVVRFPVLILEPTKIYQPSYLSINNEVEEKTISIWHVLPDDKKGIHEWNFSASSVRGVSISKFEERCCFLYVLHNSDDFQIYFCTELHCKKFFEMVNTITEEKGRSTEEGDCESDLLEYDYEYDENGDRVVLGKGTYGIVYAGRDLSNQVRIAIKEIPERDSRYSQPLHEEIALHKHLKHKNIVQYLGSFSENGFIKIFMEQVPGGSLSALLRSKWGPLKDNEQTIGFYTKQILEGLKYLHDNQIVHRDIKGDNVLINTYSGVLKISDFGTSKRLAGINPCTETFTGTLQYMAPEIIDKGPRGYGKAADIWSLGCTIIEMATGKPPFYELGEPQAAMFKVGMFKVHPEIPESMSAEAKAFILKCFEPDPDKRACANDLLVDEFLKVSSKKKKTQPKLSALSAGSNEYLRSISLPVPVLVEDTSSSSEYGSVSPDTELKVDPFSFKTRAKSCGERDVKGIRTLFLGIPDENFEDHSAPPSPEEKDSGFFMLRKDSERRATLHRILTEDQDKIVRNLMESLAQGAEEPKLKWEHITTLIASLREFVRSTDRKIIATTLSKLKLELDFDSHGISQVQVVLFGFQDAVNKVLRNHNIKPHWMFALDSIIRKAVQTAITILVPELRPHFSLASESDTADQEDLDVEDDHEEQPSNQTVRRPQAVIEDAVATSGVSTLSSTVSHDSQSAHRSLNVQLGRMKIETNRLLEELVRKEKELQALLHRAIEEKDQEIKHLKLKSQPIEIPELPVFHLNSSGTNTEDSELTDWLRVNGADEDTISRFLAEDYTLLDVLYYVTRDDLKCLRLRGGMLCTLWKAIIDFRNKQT

Structure (SMILES) | IC50 [nM]
COc1cc2c(cc1C(=O)Nc1cccc(-c3nncn3C(C)C)n1)CN(C(=O)C(C)(C)O)CC2 [Example 129] | < 1.25
COc1cc2c(cc1C(=O)Nc1cccc(-c3nnnn3[C@H](C)CO)n1)CN(C(=O)c1cnccn1)CC2 [Example 112] | < 1.25
COc1cc2c(cc1C(=O)Nc1cccc(-c3nnnn3[C@H](C)CO)n1)CN(C(=O)[C@@H]1CCOC1)CC2 [Example 142] | < 1.25
CCNS(=O)(=O)N1CCc2cc(F)c(C(=O)Nc3cccc(-c4nnnn4[C@H](C)CO)n3)cc2C1 [Example 118] | 1.25 to 10
C[C@H](CO)n1nnnc1-c1cccc(NC(=O)c2cc3c(cn2)CCN(C(=O)N2CCOCC2)C3)n1 [Example 139] | 1.25 to 10
COc1cc2c(cc1C(=O)Nc1cccc(-c3nnnn3[C@H](C)CO)n1)CN(C(=O)OC[C@@H](O)C(F)(F)F)CC2 [Example 141] | < 1.25
C[C@H](CO)n1nnnc1-c1cccc(NC(=O)c2cc3c(cc2F)CCN(S(=O)(=O)Nc2ccc(F)cc2)C3)n1 [Example 136] | 10 to 100
CC(C)n1cnnc1-c1cccc(NC(=O)c2cc3c(cc2F)CCN(C(=O)OC(C)(C)C)C3)n1 [Example 10, tert-butyl 6-fluoro-7-((6-(4-isopropyl-4H-1,2,4-triazol-3-yl)pyridin-2-yl)carbamoyl)-3,4-dihydroisoquinoline-2(1H)-carboxylate] | 1.25 to 10
C[C@H](CO)n1cnnc1-c1cccc(NC(=O)c2cc3c(cn2)CCN(S(=O)(=O)C2CC2)C3)n1 [Example 38, (R)-6-(cyclopropylsulfonyl)-N-(6-(4-(1-hydroxypropan-2-yl)-4H-1,2,4-triazol-3-yl)pyridin-2-yl)-5,6,7,8-tetrahydro-2,6-naphthyridine-3-carboxamide] | 10 to 100
COc1cc2c(cc1C(=O)Nc1cccc(-c3nncn3C(C)C)n1)CN(C(=O)C[C@H](C)O)CC2 [Example 127] | < 1.25
CC(C)n1cnnc1-c1cccc(NC(=O)c2cc3c(cc2F)CCN(C(=O)OCC(F)(F)F)C3)n1 [Example 21, 2,2,2-trifluoroethyl 6-fluoro-7-((6-(4-isopropyl-4H-1,2,4-triazol-3-yl)pyridin-2-yl)carbamoyl)-3,4-dihydroisoquinoline-2(1H)-carboxylate] | 1.25 to 10
C[C@H](CO)n1nnnc1-c1cccc(NC(=O)c2cc3c(cn2)CCN(C(=O)c2cnn(C4CC4)c2)C3)n1 [Example 100] | 1.25 to 10
COc1cc2c(cc1C(=O)Nc1cccc(-c3nnnn3[C@H](C)CO)n1)CN(c1ncc(F)cn1)CC2 [Example 152, (R)-2-(5-fluoropyrimidin-2-yl)-N-(6-(1-(1-hydroxypropan-2-yl)-1H-tetrazol-5-yl)pyridin-2-yl)-6-methoxy-1,2,3,4-tetrahydroisoquinoline-7-carboxamide] | 1.25 to 10
COc1cc2c(cc1C(=O)Nc1cccc(-c3nnnn3[C@H](C)CO)n1)CN(c1ncccn1)CC2 [Example 84, (R)-N-(6-(1-(1-hydroxypropan-2-yl)-1H-tetrazol-5-yl)pyridin-2-yl)-6-methoxy-2-(pyrimidin-2-yl)-1,2,3,4-tetrahydroisoquinoline-7-carboxamide] | 1.25 to 10
C[C@H](CO)n1nnnc1-c1cccc(NC(=O)c2cc3c(cn2)CCN(C(=O)c2cn(C4CC4)cn2)C3)n1 [Example 106] | 1.25 to 10
CCOC(=O)N1CCc2cnc(C(=O)Nc3cccc(-c4nnnn4[C@@H]4CCC[C@@H]4O)n3)cc2C1 [Example 146] | 10 to 100
COc1cc2c(cc1C(=O)Nc1cccc(-c3nncn3C(C)C)n1)CN(C(=O)[C@@H](O)CC(C)C)CC2 [Example 128] | < 1.25
C[C@H](CO)n1nnnc1-c1cccc(NC(=O)c2cc3c(cn2)CCN(C(=O)C(C)(C)O)C3)n1 [Example 140] | 1.25 to 10
COc1cc2c(cc1C(=O)Nc1cccc(-c3nnnn3[C@H](C)CO)n1)CN(C(=O)OC1CCOC1)CC2 (stereo partly shown) [Example 143] | 1.25 to 10
COc1cc2c(cc1C(=O)Nc1cccc(-c3nnnn3[C@H](C)CO)n1)CN(c1c(N)c(=O)c1=O)CC2 [Example 98, (R)-2-(2-amino-3,4-dioxocyclobut-1-en-1-yl)-N-(6-(1-(1-hydroxypropan-2-yl)-1H-tetrazol-5-yl)pyridin-2-yl)-6-methoxy-1,2,3,4-tetrahydroisoquinoline-7-carboxamide] | 1.25 to 10
COc1cc2c(cc1C(=O)Nc1cccc(-c3nnnn3[C@H](C)CO)n1)CN(C(=O)[C@](C)(O)C(F)(F)F)CC2 [Example 105] | < 1.25
COc1cc2c(cc1C(=O)Nc1cccc(-c3nnnn3[C@H](C)CO)n1)CN(CC(=O)N1CCCC1)CC2 [Example 132] | < 1.25

Structure (SMILES) | IC50 [nM]
C[C@H](CO)n1nnnc1-c1cccc(NC(=O)c2cc3c(cn2)CCN(C(=O)C(C)(C)CO)C3)n1 [Example 99] | 10 to 100
CC(C)CN1CCc2cnc(C(=O)Nc3cccc(-c4nncn4C(C)C)n3)cc2C1 [Example 3, 6-isobutyl-N-(6-(4-isopropyl-4H-1,2,4-triazol-3-yl)pyridin-2-yl)-5,6,7,8-tetrahydro-2,6-naphthyridine-3-carboxamide] | 10 to 100
CCOC(=O)N1CCc2cc(F)c(C(=O)Nc3cccc(-c4nncn4[C@H](C)CF)n3)cc2C1 [Example 103] | 1.25 to 10
CC(C)n1cnnc1-c1cccc(NC(=O)c2cc3c(cn2)CCN(C(=O)OCC(F)(F)F)C3)n1 [Example 25, 2,2,2-trifluoroethyl 7-((6-(4-isopropyl-4H-1,2,4-triazol-3-yl)pyridin-2-yl)carbamoyl)-3,4-dihydro-2,6-naphthyridine-2(1H)-carboxylate] | 1.25 to 10
COc1cc2c(cc1C(=O)Nc1cccc(-c3nnnn3[C@H](C)CO)n1)CN(C(=O)OCC(C)(C)O)CC2 [Example 130, 2-hydroxy-2-methylpropyl (R)-7-((6-(1-(1-hydroxypropan-2-yl)-1H-tetrazol-5-yl)pyridin-2-yl)carbamoyl)-6-methoxy-3,4-dihydroisoquinoline-2(1H)-carboxylate] | < 1.25
CCN1CCc2cc(F)c(C(=O)Nc3cccc(-c4nnnn4[C@H](C)CO)n3)cc2C1 [Example 138] | 100 to 1000
C[C@H](CO)n1nnnc1-c1cccc(NC(=O)c2cc3c(cc2F)CCN(S(=O)(=O)NC2CC2)C3)n1 [Example 117] | 10 to 100
COCCC(=O)N1CCc2cc(OC)c(C(=O)Nc3cccc(-c4nncn4C(C)C)n3)cc2C1 [Example 125] | < 1.25
COc1cc2c(cc1C(=O)Nc1cccc(-c3nnnn3[C@H](C)CO)n1)CN(C(=O)c1cnn(C3CC3)c1)CC2 [Example 97] | < 1.25
CC(C)n1cnnc1-c1cccc(NC(=O)c2cc3c(cn2)CCN(S(=O)(=O)C2CC2)C3)n1 [Example 13, 6-(cyclopropylsulfonyl)-N-(6-(4-isopropyl-4H-1,2,4-triazol-3-yl)pyridin-2-yl)-5,6,7,8-tetrahydro-2,6-naphthyridine-3-carboxamide] | 1.25 to 10
CC(C)n1cnnc1-c1cccc(NC(=O)c2cc3c(cn2)CCN(C(=O)C(C)(C)C)C3)n1 [Example 1, N-(6-(4-isopropyl-4H-1,2,4-triazol-3-yl)pyridin-2-yl)-6-pivaloyl-5,6,7,8-tetrahydro-2,6-naphthyridine-3-carboxamide] | 1.25 to 10
COc1cc2c(cc1C(=O)Nc1cccc(-c3nnnn3[C@H](C)CO)n1)CN(C(=O)c1cc3ccccc3cn1)CC2 [Example 102] | 1.25 to 10
COc1cc2c(cc1C(=O)Nc1cccc(-c3nnnn3[C@H](C)CO)n1)CN(C(=O)C(C)(C)O)CC2 [Example 115] | < 1.25
C[C@H](CO)n1nnnc1-c1cccc(NC(=O)c2cc3c(cc2F)CCN(C(=O)c2ccccn2)C3)n1 [Example 133] | 10 to 100
COc1cc2c(cc1C(=O)Nc1cccc(-c3nncn3C(C)C)n1)CN(c1cncnc1)CC2 [Example 151, N-(6-(4-isopropyl-4H-1,2,4-triazol-3-yl)pyridin-2-yl)-6-methoxy-2-(pyrimidin-5-yl)-1,2,3,4-tetrahydroisoquinoline-7-carboxamide] | < 1.25
COc1cc2c(cc1C(=O)Nc1cccc(-c3nnnn3[C@H](C)CO)n1)CN(S(=O)(=O)c1ccccn1)CC2 [Example 104] | < 1.25
CCOC(=O)N1CCc2cnc(C(=O)Nc3cccc(-c4nnnn4[C@H]4CCC[C@@H]4O)n3)cc2C1 [Example 145] | 10 to 100
COc1cc2c(cc1C(=O)Nc1cccc(-c3nnnn3[C@H](C)CO)n1)CN(c1cnc(F)cn1)CC2 [Example 154, (R)-2-(5-fluoropyrazine-2-yl)-N-(6-(1-(1-hydroxypropan-2-yl)-1H-tetrazol-5-yl)pyridin-2-yl)-6-methoxy-1,2,3,4-tetrahydroisoquinoline-7-carboxamide] | 1.25 to 10
CCOC(=O)N1CCc2cc(OC)c(C(=O)Nc3cccc(-c4nncn4C(C)C)n3)cc2C1 [Example 17, ethyl 7-((6-(4-isopropyl-4H-1,2,4-triazol-3-yl)pyridin-2-yl)carbamoyl)-6-methoxy-3,4-dihydroisoquinoline-2(1H)-carboxylate] | 1.25 to 10
COc1cc2c(cc1C(=O)Nc1cccc(-c3nnnn3[C@H](C)CO)n1)CN(C(=O)N1CCOCC1)CC2 [Example 131] | < 1.25
COc1cc2c(cc1C(=O)Nc1cccc(-c3nnnn3[C@H](C)CO)n1)CN(c1ncns1)CC2 [Example 153] | 1.25 to 10
